Reference: patent US8668925B2, “Transdermal delivery of hormones without the need of penetration enhancers” (Bayer Intellectual Property GmbH, priority 2003, dated 2014)

Experiments:
[1] = cited from earlier work
[2] = Serum pharmacokinetics of Ethinylestradiol and Gestodene during two patch treatment cycles; parameters: species or system women; conditions: female, human, in vivo, topical or ocular, 0.9 mg, AUC(0-[…]) of ethinyl estradiol (EE), mean
Description: Arcare MA-24A® is a polyisobutylene based adhesive from Adhesive Research.
The treatment phase includes a period of two menstrual cycles. The first treatment in the first cycle began one day after the volunteers started menstruating in this cycle by application of a patch. A total of three test patches were applied in intervals of 7 days between, such as application at days 1, 8 and 15 of the first cycle—each at different application sites—during each treatment cycle. Each patch was worn for 7 days, then replaced with a new patch to complete a total of 21 days of continuous use. This was followed by a 7-day treatment-free interval before the next treatment period started with a total of three patches applied, each applied with an interval of 7 days. If the patches were lost or became more than 40% detached, a new patch was applied.
The AUC was calculated according to the linear trapezoidal rule.
The sampling points were at the day 18 of the last pre-treatment cycle and days 1, 2, 3, 4, 5, 6, 7, 8, 15, 16, 17, 18, 19, 20, 21 and 22 of cycle 1 as well as days 1 (before application of new patch), 2, 3, 4, 5, 6, 7, 8, 15, 16, 17, 18, 19, 20, 21 and 22 of cycle 2.
After incubation and centrifugation, the resultant precipitate was redissolved with NaOH. The assay has a lower limit of quantification of approx. 250 μg/ml.

Compound | Maximal plasma levels ([1]; U.S. Pat. No. 5,376,377, ethylene vinyl acrylate adhesive layer, Gestodene and ethinylestradiol) | maximal plasma levels of Gestodene ([1]; WO 92/07590, transdermal compositions with penetration enhancers) | AUC(0-t) ([2]; Cycle 1, Week 1, test patch) [ng·h/mL] | AUC(0-t) ([2]; Cycle 1, Week 3, test patch) [ng·h/mL] | AUC(0-t) ([2]; Cycle 2, Week 1, test patch) [ng·h/mL] | AUC(0-t) ([2]; Cycle 2, Week 3, test patch) [ng·h/mL]
C#C[C@]1(O)C=C[C@H]2[C@@H]3CCC4=CC(=O)CC[C@@H]4[C@H]3CC[C@@]21CC [Gestodene, 13β-Ethyl-17α-ethynyl-17β-hydroxy-4,15-gonadien-3-one] | about 0.8 ng/ml | about 0.9 ng/ml | – | – | – | –
C#C[C@]1(O)CC[C@H]2[C@@H]3CCc4cc(O)ccc4[C@H]3CC[C@@]21C [ethinyl estradiol, Ethinylestradiol] | – | – | 5.3 | 6.1 | 5.1 | 5.8
